Data published in US20140296143A1, “Angiotensin-(1-7) As A Chemoprevention Agent” (Wake Forest Innovations, priority 2008, published 2014).
Square brackets hold non-standard residues; d marks the D form. Ends that are not written are not given here.

Legend:
[1] = tested on: VSMCs; conditions: pretreatment; U.S. Pat. No. 7,375,073; cited from earlier work
[2] = tested on: SK-LU-1 lung cancer cells; format: cell-based, human; conditions: for effect on serum-stimulated ^3H-thymidine incorporation: SK-LU-1, peptide at 1 or 100 nM; for effect of antagonist on inhibition of serum-stimulated growth by Ang-(1-7): SK-LU-1, antagonist pretreatment (1 μM)
Description: Cells were grown to subconfluence in either 24-well cluster plates or 100 mm dishes and made quiescent by treatment for 48 h with serum-depleted growth media, prior to the experiments outlined below to measure cell growth (^3H-thymidine incorporation), cell signaling or apoptosis.
Subsequently, the cell monolayer was washed with cold phosphate-buffered saline (PBS; 50 mM NaPO4, 120 mM NaCl, pH=7.2). The adherent cells were precipitated with cold 10% TCA (4° C. for 30 min) and dissolved in 0.2% SDS in 0.1 N NaOH.
During an additional 4 h, cell monolayers were pulsed with ^3H-thymidine (0.25 μCi/well) and harvested.

[3] = tested on: EA.hy.926 cells; test: Tube formation of endothelial cells in Matrigel; format: cell-based, human; conditions: selective Ang-(1-7) receptor antagonist
Description: These cells are a transformed human endothelial cell line derived from umbilical vein endothelial cells. They retain their endothelial phenotype and were previously used to study angiogenesis.
After a 16 h incubation period to allow tube formation, cultures were photographed and branch points were counted, to quantify tube formation.

[4] = tested on: AT1 angiotensin receptor; conditions: literature; cited from earlier work
Sequence of AT1 angiotensin receptor (P30556 whole entry): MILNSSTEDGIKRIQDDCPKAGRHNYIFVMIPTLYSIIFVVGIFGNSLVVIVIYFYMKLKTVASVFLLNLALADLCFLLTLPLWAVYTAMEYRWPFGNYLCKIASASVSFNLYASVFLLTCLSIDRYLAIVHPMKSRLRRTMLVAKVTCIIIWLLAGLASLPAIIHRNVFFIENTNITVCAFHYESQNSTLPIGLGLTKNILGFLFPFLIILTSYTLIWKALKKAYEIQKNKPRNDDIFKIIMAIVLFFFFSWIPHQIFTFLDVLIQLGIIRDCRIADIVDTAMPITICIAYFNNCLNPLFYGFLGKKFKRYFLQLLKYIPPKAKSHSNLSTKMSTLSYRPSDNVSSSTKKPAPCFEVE

[5] = biological target: T1, AT2 angiotensin receptor (Homo sapiens, UniProt P50052); conditions: literature; cited from earlier work
T1 sequence (P50052 1-363): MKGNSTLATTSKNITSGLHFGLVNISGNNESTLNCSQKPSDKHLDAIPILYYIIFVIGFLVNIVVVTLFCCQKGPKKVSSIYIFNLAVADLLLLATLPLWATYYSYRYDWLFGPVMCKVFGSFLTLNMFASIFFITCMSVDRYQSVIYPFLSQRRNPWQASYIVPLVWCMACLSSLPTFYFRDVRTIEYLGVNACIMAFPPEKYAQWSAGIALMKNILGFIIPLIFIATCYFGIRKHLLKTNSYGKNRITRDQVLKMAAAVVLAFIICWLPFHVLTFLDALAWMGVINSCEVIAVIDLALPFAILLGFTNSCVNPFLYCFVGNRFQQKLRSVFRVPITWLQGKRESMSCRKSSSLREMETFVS

| Compound | effect on serum-stimulated ^3H-thymidine incorporation [2] | effect of antagonist on inhibition of serum-stimulated growth by Ang-(1-7) [2] | further results |
| --- | --- | --- | --- |
| CCN(CC)CC.Nc1ncnc2c1ncn2[C@@H]1O[C@@H]2COP(O)(=S)O[C@H]2[C@H]1O (stereo partly drawn) [Rp-cAMPS, Rp-adenosine-3′,5′-cyclic monphospho-phorothioate triethylamine salt] | – | – | effect on the reduction in serum-stimulated ^3H-thymidine incorporation by Ang-(1-7) or carbacyclin [1]: completely blocked |
| Arg-Val-Tyr-Ile-His-Pro-Phe (RVYIHPF; listed as Homo sapiens) [Ang-(2-8)] | ineffective | – | – |
| Val-Tyr-Ile-His-Pro-Phe (VYIHPF; listed as Homo sapiens) [Ang-(3-8)] | ineffective | – | – |
| CCCCc1nc(Cl)c(CO)n1Cc1ccc(-c2ccccc2-c2nn[nH]n2)cc1 [Losartan] | – | neither AT1 nor AT2 angiotensin receptor antagonists Losartan and PD123177, respectively, were effective | – |
| Asp-Arg-Val-Tyr-Ile-His-Pro-Phe [Ang II] | ineffective | – | – |
| [D-Pro^7]-Ang-(1-7): a selective Ang-(1-7) receptor antagonist [reference compound] | – | – | effect on Ang-(1-7)-mediated reduction in tube formation [3]: prevented |
| Cc1cc(Cn2cnc3c2CC(C(=O)O)N(C(=O)C(c2ccccc2)c2ccccc2)C3)ccc1N (stereo not drawn) [PD123177] | – | neither AT1 nor AT2 angiotensin receptor antagonists Losartan and PD123177, respectively, were effective | – |
| DRVYIHPFHL [Ang I] | ineffective | – | – |
| Val-Tyr-Ile-His-Pro (VYIHP; listed as Homo sapiens) [Ang-(3-7)] | ineffective | – | – |
| [D-Ala^7]-Ang-(1-7): a modified form of Ang-(1-7), selective Ang-(1-7) antagonist (DRVYIH[dA]) [reference compound] | – | blocked | competition at the AT1 receptor [4]: poor competitor; competition at the AT2 receptor [5]: poor competitor |
